Experimental data published in patent US20260069588A1, “VEPDEGESTRANT FOR USE IN TREATING CANCER” (Arvinas Operation, Inc., priority 2022, published 2026).

How the values were obtained:
[1] = Caco-2 bidirectional permeability; format: in vitro ADME; settings: human, Caco-2, 1.125 pM
Caco-2 cells = experiment: Caco-2 bidirectional permeability; format: in vitro ADME; settings: 11.25 μM
[2] = pH effect on absorption with famotidine in fasted rats and dogs; format: in vivo; settings: spray-dried dispersion
[3] = FIH Study Part B dose expansion (VERITAC): adverse events
Procedure: Study Design: In the FIH Study: Part A is a Phase I monotherapy dose escalation, and Part B is a Phase 2 monotherapy expansion at 2 RP2D doses (200 mg QD, 500 mg QD).
TEAEs and TRAEs from the clinical study database were coded to system organ class and preferred term using MedDRA version 22.0 and SAEs from the centralized safety database were coded using MedDRA version 25.0. The severity of adverse events was graded according to the NCI CTCAE version 5.0.

[4] = 200 mg QD n=35, Nov. 1, 2022, grade 1/2

O=C1CC[C@H](N2Cc3cc(N4CCN(CC5CCN(c6ccc([C@@H]7c8ccc(O)cc8CC[C@@H]7c7ccccc7)cc6)CC5)CC4)ccc3C2=O)C(=O)N1 [Compound A, (S)-3-(5-(4-((1-(4-((1R,2S)-6-hydroxy-2-phenyl-1,2,3,4-tetrahydronaphthalen-1-yl)phenyl)piperidin-4-yl)methyl)piperazin-1-yl)-1-oxoisoindolin-2-yl)piperidine-2,6-dione]
Papp A→B at 1.125 pM ([1]; read-out: permeability apical to basolateral): 1.33 ×10⁻⁶ cm/s
Papp B→A at 1.125 pM ([1]; read-out: permeability basolateral to apical): 0.08 ×10⁻⁶ cm/s
bidirectional permeability (Caco-2 cells): Similarly low bidirectional permeability
pH effect on absorption with famotidine [2]: lowered PK at neutral pH
TRAE Arthralgia [3, 4]: 11%
TRAE Fatigue [3, 4]: 40%
TRAE Nausea [3, 4]: 14%
TRAE hot flush [3, 4]: 17%
TRAE increased aspartate aminotransferase [3, 4]: 11%
Grade 5 TRAEs ([3]; 6 Jun 2023): no Grade 5 TRAEs
Grade 1 TEAEs ([3]; 6 Jun 2023, N=71): 22.5%
Grade 1 TRAEs ([3]; 6 Jun 2023, N=71): 29.6%
Grade 2 TEAEs ([3]; 6 Jun 2023, N=71): 33.8%
Grade 2 TRAEs ([3]; 6 Jun 2023, N=71): 38.0%
Grade 3 TEAEs ([3]; 6 Jun 2023, N=71): 28.2%
Grade 3 TRAE electrocardiogram QT prolonged ([3]; 6 Jun 2023, N=71): 1.4%
Grade 4 TEAEs ([3]; 6 Jun 2023, N=71): 2.8%
Grade 5 TEAE ([3]; 6 Jun 2023, N=71): 1.4%
TEAE Arthralgia ([3]; 6 Jun 2023, N=71): 21.1%
TEAE Aspartate aminotransferase increased ([3]; 6 Jun 2023, N=71): 12.7%
TEAE Back pain ([3]; 6 Jun 2023, N=71): 11.3%
TEAE Constipation ([3]; 6 Jun 2023, N=71): 19.7%
TEAE Decreased appetite ([3]; 6 Jun 2023, N=71): 15.5%
TEAE Headache ([3]; 6 Jun 2023, N=71): 11.3%
TEAE Nausea ([3]; 6 Jun 2023, N=71): 26.8%
TEAE anemia ([3]; 6 Jun 2023, N=71): 14.1%
TEAE hot flush ([3]; 6 Jun 2023, N=71): 14.1%
TRAE Arthralgia ([3]; 6 Jun 2023, N=71): 14.1%
TRAE Fatigue ([3]; 6 Jun 2023, N=71): 36.6%
TRAE Nausea ([3]; 6 Jun 2023, N=71): 21.1%
TRAE hot flush ([3]; 6 Jun 2023, N=71): 12.7%
patients with TRAEs of Grade ≥3 ([3]; 6 Jun 2023, N=71): 7.0%
patients with at least 1 TEAE ([3]; 6 Jun 2023, N=71): 88.7%
patients with at least 1 TRAE ([3]; 6 Jun 2023, N=71): 76.1%
SAEs ([3]; 6 Jun 2023, N=71, 10): 14.1%
deaths ([3]; 14 of 71 participants): 19.7%
SAE Seizure, Grade ([3]; Patient 1, onset day 263, Not related): 3
SAE Intestinal obstruction, Grade ([3]; Patient 2, onset day 85, Not related): 3
SAE Muscular weakness, Grade ([3]; Patient 3, onset day 165, Not related): 3
SAE Back pain, Grade ([3]; Patient 3, onset day 196): 2
SAE Hepatic hemorrhage, Grade ([3]; Patient 4, onset day 55, Not related): 4
SAE Hypercalcemia, Grade ([3]; Patient 5, onset day 53, Not related): 4
SAE Anemia, Grade ([3]; Patient 6, Not related): 3
SAE Cholangitis, Grade ([3]; Patient 6, Not related): 3
SAE Thrombocytopenia, Grade ([3]; Patient 6, Possibly related, SUSAR): 3
SAE Hyperbilirubinemia, Grade ([3]; Patient 6, onset day 15, Possibly related, SUSAR): 4
SAE Acute respiratory failure, Grade ([3]; Patient 6, onset day 19, Unlikely related): 5
SAE Upper gastrointestinal hemorrhage, Grade ([3]; Patient 7, onset day 36, Not related): 3
SAE Spinal cord compression, Grade ([3]; Patient 8, onset day 22, Not related): 3
SAE Pyrexia, Grade ([3]; Patient 9, onset day 27, Not related): 3
Grade 5 TRAEs ([3]; cut-off 6 Jun 2022): no Grade 5 TRAEs
patients reporting SAEs ([3]; cut-off 6 Jun 2022): 9 of 71 patients
total SAEs ([3]; cut-off 6 Jun 2022): 14 SAEs
Grade 1 TEAEs ([3]; cut-off 6 Jun 2022, N=71): 29.6%
Grade 1 TRAEs ([3]; cut-off 6 Jun 2022, N=71): 33.8%
Grade 2 TEAEs ([3]; cut-off 6 Jun 2022, N=71): 35.2%
Grade 2 TRAEs ([3]; cut-off 6 Jun 2022, N=71): 31.0%
Grade 3 TEAE of anemia ([3]; cut-off 6 Jun 2022, N=71): 2 patients
Grade 3 TEAEs ([3]; cut-off 6 Jun 2022, N=71): 18.3%
Grade 4 TEAEs ([3]; cut-off 6 Jun 2022, N=71): 2.8%
Grade 4 TRAE of hyperbilirubinemia ([3]; cut-off 6 Jun 2022, N=71): 1
Grade 5 TEAE ([3]; cut-off 6 Jun 2022, N=71): 1.4%
TEAEs of Grade ≥3 ([3]; cut-off 6 Jun 2022, N=71): 22.5%
patients with TRAEs of Grade ≥3 ([3]; cut-off 6 Jun 2022, N=71): 7.0%
patients with at least 1 TEAE ([3]; cut-off 6 Jun 2022, N=71): 87.3%
patients with at least 1 TRAE ([3]; cut-off 6 Jun 2022, N=71): 71.8%
TEAE leading to discontinuation ([3]; four of 71 patients): 5.6%
